Results published in patent US10556936B2, “Immunogenic proteins and fragments thereof from allergenic mites” (ALK-ABELLÓ A/S, priority 2016, dated 2020).

Tested on: HDM-specific T cells expanded from PBMCs of HDM-allergic individuals
Experiment: T cell reactivity of peptides: IFN/IL-5 ELISPOT on in vitro expanded HDM-specific T cells
Format: cell-based, human
Conditions: for SFC/donor: individual peptides 10 μg/mL; for % responder: percentage of donors that produced a response against the peptide, 10 μg/mL
Protocol: Each sequence of an “L” cluster was aligned separately using the MEGA software tool with ClustalW. Fifteen-mer peptides overlapping by 10 amino acids were generated and the last 15-mer peptide was added when the sequence length was not divisible by 5, 14,783 unique peptides remained.
HLA class II binding predictions optimized for global coverage were performed for the seven class II alleles (HLA-DRB1*03:01, HLA-DRB1*07:01, HLA-DRB1*15:01, HLA-DRB3*01:01, HLA-DRB3*02:02, HLA-DRB4*01:01 and HLA-DRB5*01:01) using the standalone version of the IEDB class II binding prediction tool. The median consensus percentile rank was estimated from the consensus percentile ranks for the seven alleles. Further, peptides with more than ten overlapping amino acids, which appeared because several occurrences of some sequence regions were repeated multiple times in the same sequence, were eliminated (e.g. “[…]” was repeated seven times in one sequence.) Variant peptides were also removed, retaining the better peptide based on the median consensus percentile rank and conservation among the sequences within its respective cluster. Peptides with median consensus percentile rank ≤10.0 and conserved in ≥35% of sequences in the same cluster were finally selected, also including additional selected peptides chosen to maximize DRB1 allele coverage, for a grand total of 2,589 peptides.
Peptides were purchased from Mimotopes (Clayton, Victoria, Australia) or A and A (San Diego, Calif.) as crude material on a small (1-mg) scale. Individual peptides were resuspended in DMSO at a final concentration of 40 mg/mL. Peptide “megapools” of 30-65 peptides/pool were generated. Following lyophilization, each pool was reconstituted in DMSO so that each peptide was present at a concentration of 4 mg/mL. To facilitate deconvolution of positive megapools, each megapool was further broken down in 2-6 “mesopools” (259 mesopools in total), each containing 8-14 peptides. Each mesopool was then deconvoluted to identify individual positive peptides. To avoid dimerization and polymerization of peptides by intra- and intermolecular disulfide bond formation between cysteine residues, this amino acid were in some instances substituted by a serine residue in the peptides. Such peptides are herein marked with an asterisk (*).
PBMCs from European HDM-allergic individuals were recruited in the Copenhagen region (defined by clinical history of allergy to house dust mite and specific IgE to group 1 and group 2 major allergens from Der p and/or Der f and with measured specific IgE (CAP) >0.7 kU/L towards Der p/f 1 or Der p/f 2. In addition, PBMCs from 10 US HDM-allergic individuals were recruited in San Diego (defined by Der p extract IgE titers greater than 0.35 kUA/L). PBMCs were isolated from whole blood by density gradient centrifugation according to manufacturers' instructions (Ficoll-Hypaque, Amersham Biosciences, Uppsala, Sweden). Der p- and Der f-specific extract IgE titers were determined using the ImmunoCAP system (Thermo Fisher, Uppsala, Sweden). In a separate series of experiments, pooled plasma from 10 European and 10 American HDM atopic individuals from the San Diego region, respectively, was utilized to run 2D immunoblots to elucidate IgE and IgG reactivity towards the proteins, which had at least one peptide with positive T cell response.
HDM-specific T cells were expanded in vitro. Briefly, PBMCs from HDM-allergic individuals were stimulated with HDM extract (5 μg/mL) and expanded over 14-17 days with IL-2 (added every 3 days). Cells were harvested on day 14, restimulated with HDM extract (5 μg/mL), individual peptides (10 μg/mL) or peptide pools (5 μg/mL) and screened for […]/IL-5-production by ELISPOT. Criteria for positivity were 100 or 20 spot forming cells (SFCs) per 10^6 PBMCs for peptide pools or single peptides, respectively, p<0.05, and a stimulation index >2.

45 (IMRILCCKSRKVAPC; Immunogenic fragment) [compound 45]
SFC/donor: 4 SFC/donor | % responder: 5%

46 (FNYLPVDVQEELRNT; Immunogenic fragment) [compound 46]
SFC/donor: 7 SFC/donor | % responder: 5%

47 (ELLKKKGIIPGIKVD; Immunogenic fragment) [compound 47]
SFC/donor: 12 SFC/donor | % responder: 5%

48 (EQYISGVILFDETVY; Immunogenic fragment) [compound 48]
SFC/donor: 326 SFC/donor | % responder: 20%

49 (KGIIPGIKVDTGVVT; Immunogenic fragment) [compound 49]
SFC/donor: 83 SFC/donor | % responder: 10%

50 (FIMLKPDAVQRGIVG; Immunogenic fragment) [compound 50]
SFC/donor: 7 SFC/donor | % responder: 5%

51 (RGIVGEIIRRFEAKG; Immunogenic fragment) [compound 51]
SFC/donor: 5 SFC/donor | % responder: 5%

52 (EIIRRFEAKGFKLVA; Immunogenic fragment) [compound 52]
SFC/donor: 40 SFC/donor | % responder: 5%

53 (FEAKGFKLVAMKFMM; Immunogenic fragment) [compound 53]
SFC/donor: 7 SFC/donor | % responder: 5%

54 (FKLVAMKFMMASEDL; Immunogenic fragment) [compound 54]
SFC/donor: 6 SFC/donor | % responder: 5%

55 (KFMMASEDLLKKHYA; Immunogenic fragment) [compound 55]
SFC/donor: 5 SFC/donor | % responder: 5%

56 (LKKHYADLAARPFFP; Immunogenic fragment) [compound 56]
SFC/donor: 8 SFC/donor | % responder: 5%

57 (WEGLNAVKTGRVMLG; Immunogenic fragment) [compound 57]
SFC/donor: 5 SFC/donor | % responder: 5%

58 (ITRLREAMGVMQHHD; Immunogenic fragment) [compound 58]
SFC/donor: 8 SFC/donor | % responder: 5%

59 (GTEKQHVAFNYAKML; Immunogenic fragment) [compound 59]
SFC/donor: 80 SFC/donor | % responder: 5%

60 (HVAFNYAKMLDSAML; Immunogenic fragment) [compound 60]
SFC/donor: 75 SFC/donor | % responder: 5%

61 (AMLQCRHVISESYRK; Immunogenic fragment) [compound 61]
SFC/donor: 5 SFC/donor | % responder: 5%

62 (RHIINESYKKLLPKS; Immunogenic fragment) [compound 62]
SFC/donor: 4 SFC/donor | % responder: 5%

63 (EFCPYLNISSCPSTE; Immunogenic fragment) [compound 63]
SFC/donor: 7 SFC/donor | % responder: 10%

64 (LYNPLGHRLINHTVR; Immunogenic fragment) [compound 64]
SFC/donor: 6 SFC/donor | % responder: 5%

65 (LISIPEFVRKIPGRK; Immunogenic fragment) [compound 65]
SFC/donor: 6 SFC/donor | % responder: 5%

66 (IVQEVHQQFDSFVGQ; Immunogenic fragment) [compound 66]
SFC/donor: 6 SFC/donor | % responder: 5%

67 (LMVHRRLLHDDYFGV; Immunogenic fragment) [compound 67]
SFC/donor: 2 SFC/donor | % responder: 5%

68 (DGHGIVIRGRHLLLL; Immunogenic fragment) [compound 68]
SFC/donor: 24 SFC/donor | % responder: 5%

69 (EPIISFTSIESNKQA; Immunogenic fragment) [compound 69]
SFC/donor: 112 SFC/donor | % responder: 5%

70 (HSKRYLLRLEHFYQR; Immunogenic fragment) [compound 70]
SFC/donor: 5 SFC/donor | % responder: 5%

71 (LLRLEHFYQRFEDPS; Immunogenic fragment) [compound 71]
SFC/donor: 8 SFC/donor | % responder: 5%

72 (KRYLLRLEHFYQSNE; Immunogenic fragment) [compound 72]
SFC/donor: 4 SFC/donor | % responder: 5%

73 (TLEQWHSKRYLLRLE; Immunogenic fragment) [compound 73]
SFC/donor: 4 SFC/donor | % responder: 5%

74 (TVSLRHLFQSFEITA; Immunogenic fragment) [compound 74]
SFC/donor: 25 SFC/donor | % responder: 5%

75 (SLRHLFKSFEIIAVE; Immunogenic fragment) [compound 75]
SFC/donor: 6 SFC/donor | % responder: 5%

76 (FKSFEIIAVEELTLG; Immunogenic fragment) [compound 76]
SFC/donor: 8 SFC/donor | % responder: 5%

77 (ANQPISSLKNRLHYR; Immunogenic fragment) [compound 77]
SFC/donor: 4 SFC/donor | % responder: 5%

78 (ELTLGANQPISSLKN; Immunogenic fragment) [compound 78]
SFC/donor: 6 SFC/donor | % responder: 5%

79 (GNDLKNLSSKVLPNL; Immunogenic fragment) [compound 79]
SFC/donor: 5 SFC/donor | % responder: 5%

80 (NLSSKVLPNLNVPYC; Immunogenic fragment) [compound 80]
SFC/donor: 4 SFC/donor | % responder: 5%

81 (DDGNLISRALPHLGV; Immunogenic fragment) [compound 81]
SFC/donor: 8 SFC/donor | % responder: 5%

82 (YIGYKIEKHSKNLIQ; Immunogenic fragment) [compound 82]
SFC/donor: 4 SFC/donor | % responder: 5%

83 (DLSMTKLKRVRPSGF; Immunogenic fragment) [compound 83]
SFC/donor: 4 SFC/donor | % responder: 5%

84 (IHQLNDQVLRLKFID; Immunogenic fragment) [compound 84]
SFC/donor: 3 SFC/donor | % responder: 5%

85 (DQVLRLKFIDANQKR; Immunogenic fragment) [compound 85]
SFC/donor: 222 SFC/donor | % responder: 20%

86 (RLYSVELDGSHLIVR; Immunogenic fragment) [compound 86]
SFC/donor: 3 SFC/donor | % responder: 5%

87 (QSIFDINLAYMVYSD; Immunogenic fragment) [compound 87]
SFC/donor: 69 SFC/donor | % responder: 20%

88 (MVYSDQLIHVTSRLP; Immunogenic fragment) [compound 88]
SFC/donor: 3 SFC/donor | % responder: 5%

89 (RAPFRKNTNWKRYTQ; Immunogenic fragment) [compound 89]
SFC/donor: 9 SFC/donor | % responder: 5%

90 (TKLASGVFLFNSNAM; Immunogenic fragment) [compound 90]
SFC/donor: 11 SFC/donor | % responder: 5%

91 (GVFLFNSNAMDILTQ; Immunogenic fragment) [compound 91]
SFC/donor: 9 SFC/donor | % responder: 5%

92 (GPKPEQVVQQYHNLI; Immunogenic fragment) [compound 92]
SFC/donor: 1 SFC/donor | % responder: 5%

93 (QVVQQYHNLIGLPAM; Immunogenic fragment) [compound 93]
SFC/donor: 11 SFC/donor | % responder: 10%
